Experimental findings from US20230135524A1, “ARYL HYDANTOIN HETEROCYCLES AND METHODS OF USE” (The United States of America,as represented by the …, priority 2020, published 2023) are described below.

Read-outs that look alike come from different tables or passages of the source.

What all share (type): cell-based
For one experiment, the system named is LAPC4. Briefly: IncuCyte % confluence cell growth inhibition, LAPC4. The following applies: Homo sapiens. As for the experimental part: (§1) Images were then analyzed to discern the % confluence of cells in each well. IC50 values were calculated from dose response curves of the % cell growth inhibition relative to DMSO control at the same time point per each cell line.

A further experiment relates to LNCAP AR. Nature of the experiment: IncuCyte % confluence cell growth inhibition, LNCAP AR. The settings on record: read-out: IC50 values (μM), LNCAP AR. As for the experimental part: as §1
A further experiment relates to LNCaP. Nature of the experiment: IncuCyte % confluence cell growth inhibition, LNCaP. The settings on record: Homo sapiens, read-out: IC50 values (μM), LNCaP. As for the experimental part: as §1
The subject of the next experiment is PC3. Nature of the experiment: IncuCyte % confluence cell growth inhibition, PC3. The following applies: Homo sapiens. As for the experimental part:
as §1

In another experiment the test system is LNCaP ARin vivo. Nature of the experiment: IncuCyte % confluence cell growth inhibition, LNCaP ARin vivo. The following applies: Homo sapiens, read-out: IC50 values (μM), LNCaP ARin vivo. As for the experimental part: as §1
Another experiment concerns 22Rv1. Nature of the experiment: IncuCyte % confluence cell growth inhibition, 22Rv1. The settings on record: Homo sapiens. As for the experimental part: as §1
For the next experiment, the system named is DU145. Nature of the experiment: IncuCyte % confluence cell growth inhibition, DU145. The settings on record: Homo sapiens. As for the experimental part:
as §1

For the next experiment, the target named is T1, AR (Homo sapiens, UniProt P10275).
T1 construct: host or cells: HEK 293T
T1 sequence (P10275 1-920): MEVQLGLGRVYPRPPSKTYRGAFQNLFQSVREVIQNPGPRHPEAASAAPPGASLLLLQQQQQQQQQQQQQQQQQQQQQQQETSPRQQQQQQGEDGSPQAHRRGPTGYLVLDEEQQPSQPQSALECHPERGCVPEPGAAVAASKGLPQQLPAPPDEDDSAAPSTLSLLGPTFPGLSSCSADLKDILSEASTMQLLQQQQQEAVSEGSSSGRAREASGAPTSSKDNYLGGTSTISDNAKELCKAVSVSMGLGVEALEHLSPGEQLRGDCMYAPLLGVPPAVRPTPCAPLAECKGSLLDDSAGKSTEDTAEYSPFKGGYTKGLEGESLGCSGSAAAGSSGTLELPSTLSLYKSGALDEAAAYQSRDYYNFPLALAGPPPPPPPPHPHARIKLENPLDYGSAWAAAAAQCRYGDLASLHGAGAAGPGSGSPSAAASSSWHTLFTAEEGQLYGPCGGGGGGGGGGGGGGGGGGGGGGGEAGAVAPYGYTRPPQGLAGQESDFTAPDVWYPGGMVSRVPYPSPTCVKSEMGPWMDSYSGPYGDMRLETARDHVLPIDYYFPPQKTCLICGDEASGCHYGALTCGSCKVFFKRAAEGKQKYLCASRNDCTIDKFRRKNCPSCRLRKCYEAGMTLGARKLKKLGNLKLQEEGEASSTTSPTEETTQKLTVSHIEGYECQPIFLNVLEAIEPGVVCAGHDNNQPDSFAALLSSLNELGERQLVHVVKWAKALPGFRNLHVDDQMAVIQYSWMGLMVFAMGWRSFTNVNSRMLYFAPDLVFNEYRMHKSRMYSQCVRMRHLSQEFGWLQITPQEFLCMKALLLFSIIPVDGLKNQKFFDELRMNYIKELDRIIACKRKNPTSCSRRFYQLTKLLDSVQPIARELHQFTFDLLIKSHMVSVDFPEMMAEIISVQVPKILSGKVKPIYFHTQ
Nature of the experiment: AR transcriptional output, ARE-luciferase assay in HEK 293T cells. The following applies: for antagonist or inverse agonist activity on AR transcriptional activity (in words): 10 μM, HEK 293T, FIG. 6A; for activity at 10 µM: HEK-293T, read-out: AR antagonist activity (% RLU). As to the method:
100% is set to the activity with 200 μM testosterone, and 0% is set to the basal level (no ligand).
Cells were maintained in steroid free media, and stimulated with 200 μM testosterone, followed immediately by administration of exemplary compounds (Table 1, below). RLU is relative luciferase units, relative to DMSO control with 200 μM testosterone alone. Data represent an average of 3 independent experiments performed in triplicate wells per compounds at 10 μM.
Cells were maintained in steroid-free media, and stimulated with 200 μM testosterone, followed immediately by administration of a test compound. […] Compounds were dosed at 10 μM in FIGS. 6A and 6B.
Cells were maintained in steroid-free media, and stimulated with 200 μM testosterone, followed immediately by administration of a test compound.

Another experiment relates to LNCaP ARF876L. Nature of the experiment: IncuCyte % confluence cell growth inhibition, LNCaP ARF876L. The settings on record: Homo sapiens, AR-positive, AR mutation F876L, % cell growth inhibition relative to DMSO. As to the method: as §1
[1] abbreviates: LAPC4, AR-positive, AR w.t., % cell growth inhibition relative to DMSO, read-out: IC50 values (μM), LAPC4.
Where [2] appears, read: AR-positive, AR w.t., % cell growth inhibition relative to DMSO.
Where [3] appears, read: AR-positive, AR mutation T877A, % cell growth inhibition relative to DMSO.
[4] abbreviates: PC-3, AR-negative, % cell growth inhibition relative to DMSO, read-out: IC50 values (μM), PC3.
Where [5] appears, read: 22Rv1, AR-positive, AR mutation H874Y, % cell growth inhibition relative to DMSO, read-out: IC50 values (μM), 22Rv1.
Where [6] appears, read: DU-145, AR-negative, % cell growth inhibition relative to DMSO, read-out: IC50 values (μM), DU145.
The mark [7] stands for this setting: LAPC4, read-out: IC50 values (μM), LAPC4.
[8] abbreviates: PC-3, read-out: IC50 values (μM), PC3.
The mark [9] stands for this setting: 22Rv1, read-out: IC50 values (μM), 22Rv1.
[10] abbreviates: DU-145, read-out: IC50 values (μM), DU145.

With `CNC(=O)c1ccc(N2C(=S)N(c3cnc(C#N)c(C(F)(F)F)c3)C(=O)C23CCC3)cc1F` [ARN509, reference compound], the IC50 in the experiment on LAPC4 (setting [1]) amounted to 86 µM; in the experiment on LNCAP AR (setting [2]), 98.9 µM; in the experiment with LNCaP (setting [3]), 34.5 µM; in the experiment on PC3 (setting [4]), 300 µM; in the experiment on LNCaP ARin vivo (setting [2]), 270 µM; in the experiment with 22Rv1 (setting [5]) it was 32.5 µM. Besides, in the experiment with DU145 (setting [6]), the IC50 amounted to 61.8 µM.

Take `CC(=O)N1CCN(CCOc2ccc(C3CCN(C4=Nn5c(nnc5C(F)(F)F)CC4)CC3)cc2)CC1` [AZD3514, reference compound]: the IC50 in the experiment on LAPC4 (setting [1]) came to 30.5 µM; in the experiment on LNCAP AR (setting [2]), 25.8 µM; in the experiment on LNCaP (setting [3]), 76.9 µM; with PC3 (setting [4]), 122 µM; in the experiment on 22Rv1 (setting [5]), 26.8 µM; with DU145 (setting [6]), 61.2 µM.

On to `CC(O)(CS(=O)(=O)c1ccc(F)cc1)C(=O)Nc1ccc(C#N)c(C(F)(F)F)c1` (stereo not drawn) [Bicalutamide, bicalutamide, reference compound], for which the IC50 in the experiment with LAPC4 (setting [1]) was 67 µM; in the experiment on LNCAP AR (setting [2]) it was 80.5 µM; in the experiment on PC3 (setting [4]) it was 239 µM; with 22Rv1 (setting [5]), 53.4 µM.

For the compound `C#Cc1ccc(CN2C(=O)N(c3ccc(C#N)c(C(F)(F)F)c3)C(=O)C2(C)C)cc1` [Compound 6, 4-[3-[(4-ethynylphenyl)methyl]-4,4-dimethyl-2,5-dioxo-1-imidazolidinyl]-2-(trifluoromethyl)-benzonitrile], on AR, the “antagonist or inverse agonist activity on AR transcriptional activity (in words)” value (“antagonist or inverse agonist activity” below) is “relatively weak antagonists” and the activity at 10 µM was 138%.

Take `C#Cc1ccc(CN2C(=S)N(c3ccc(C#N)c(C(F)(F)F)c3)C(=O)C2(C)C)cc1` [Compound 10, 4-(3-(4-ethynylbenzyl)-4,4-dimethyl-5-oxo-2-thioxoimidazolidin-1-yl)-2-(trifluoromethyl)benzonitrile]: on AR, the “antagonist or inverse agonist activity” value is “relatively weak antagonists” and the activity at 10 µM is 95%.

With `C#Cc1ccc(N2C(=S)N(c3ccc(C#N)c(C(F)(F)F)c3)C(=O)C2(C)C)cc1` [Compound 13, 4-(3-(4-ethynylphenyl)-4,4-dimethyl-5-oxo-2-thioxoimidazolidin-1-yl)-2-(trifluoromethyl)benzonitrile], at AR, the “antagonist or inverse agonist activity” value is listed as “relatively weak antagonists” and the activity at 10 µM was found to be 59%.

Consider `Cn1cc(-c2ccc(CN3C(=O)N(c4ccc(C#N)c(C(F)(F)F)c4)C(=O)C3(C)C)cc2)nn1` [Compound 14b, 4-(4,4-dimethyl-3-(4-(1-methyl-1H-1,2,3-triazol-4-yl)benzyl)-2,5-dioxoimidazolidin-1-yl)-2-(trifluoromethyl)benzonitrile], for which, on AR, the activity at 10 µM is -3%.

As for `Cn1cc(-c2ccc(CN3C(=S)N(c4ccc(C#N)c(C(F)(F)F)c4)C(=O)C3(C)C)cc2)nn1` [Compound 15b, 4-(4,4-dimethyl-3-(4-(1-methyl-1H-1,2,3-triazol-4-yl)benzyl)-5-oxo-2-thioxoimidazolidin-1-yl)-2-(trifluoromethyl)benzonitrile], the activity at 10 µM on AR is -41%.

Consider `CCn1cc(-c2ccc(CN3C(=S)N(c4ccc(C#N)c(C(F)(F)F)c4)C(=O)C3(C)C)cc2)nn1` [Compound 15c, 4-(3-(4-(1-ethyl-1H-1,2,3-triazol-4-yl)benzyl)-4,4-dimethyl-5-oxo-2-thioxoimidazolidin-1-yl)-2-(trifluoromethyl)benzonitrile], for which the activity at 10 µM at AR amounted to 3%.

With `CCCn1cc(-c2ccc(CN3C(=S)N(c4ccc(C#N)c(C(F)(F)F)c4)C(=O)C3(C)C)cc2)nn1` [Compound 15d, 4-(4,4-dimethyl-5-oxo-3-(4-(1-propyl-1H-1,2,3-triazol-4-yl)benzyl)-2-thioxoimidazolidin-1-yl)-2-(trifluoromethyl)benzonitrile], at AR, the activity at 10 µM turned out to be 4%.

Regarding `CCCCn1cc(-c2ccc(CN3C(=S)N(c4ccc(C#N)c(C(F)(F)F)c4)C(=O)C3(C)C)cc2)nn1` [Compound 15e, 4-(3-(4-(1-butyl-1H-1,2,3-triazol-4-yl)benzyl)-4,4-dimethyl-5-oxo-2-thioxoimidazolidin-1-yl)-2-(trifluoromethyl)benzonitrile], on AR, the activity at 10 µM was -3%.

As for `CC1(C)C(=O)N(c2ccc(C#N)c(C(F)(F)F)c2)C(=S)N1Cc1c[nH]nn1` [Compound 18a], the activity at 10 µM at AR came to 412%.

For the compound `CC1(C)C(=O)N(c2ccc(C#N)c(C(F)(F)F)c2)C(=O)N1Cc1ccc(-c2c[nH]nn2)cc1F` [Compound 19a, 4-(3-(2-Fluoro-4-(1H-1,2,3-triazol-4-yl)benzyl)-4,4-dimethyl-2,5-dioxoimidazolidin-1-yl)-2-(trifluoromethyl)benzonitrile], the IC50 with LAPC4 (setting [7]) is 30.7 µM; in the experiment with LNCAP AR, 29.4 µM; with LNCaP, 39 µM; in the experiment on PC3 (setting [8]), 63.4 µM; with LNCaP ARin vivo it was 35.8 µM; in the experiment with LNCaP ARF876L it was 41.4 µM. Further, the results for the half-maximal inhibitory concentration (IC50) in the experiment on 22Rv1 (setting [9]) and with DU145 (setting [10]) were 36.7 µM and 46.1 µM, respectively.

In the case of `CC1(C)C(=O)N(c2ccc(C#N)c(C(F)(F)F)c2)C(=O)N1Cc1ccc(-c2c[nH]nn2)c(F)c1` [Compound 19b, 4-(3-(3-Fluoro-4-(1H-1,2,3-triazol-4-yl)benzyl)-4,4-dimethyl-2,5-dioxoimidazolidin-1-yl)-2-(trifluoromethyl)benzonitrile], the 50% inhibitory concentration (IC50) was found to be 33.1 µM in the experiment with LAPC4 (setting [7]); 35.1 µM in the experiment on LNCAP AR; 43.1 µM in the experiment on LNCaP; 60.9 µM in the experiment with PC3 (setting [8]); 60.1 µM in the experiment on LNCaP ARin vivo; 49.4 µM with LNCaP ARF876L. Moreover, the IC50 in the experiment with 22Rv1 (setting [9]) amounted to 40.6 µM; in the experiment on DU145 (setting [10]) it was 65 µM.

As for `CC1(C)C(=O)N(c2ccc(C#N)c(C(F)(F)F)c2)C(=O)N1Cc1ccc(-n2ccnn2)cc1` [Compound 20a, 4-(3-(4-(1H-1,2,3-triazol-1-yl)benzyl)-4,4-dimethyl-2,5-dioxoimidazolidin-1-yl)-2-(trifluoromethyl)benzonitrile], the activity at 10 µM on AR turned out to be 57%.

Regarding `CC1(C)C(=O)N(c2ccc(C#N)c(C(F)(F)F)c2)C(=O)N1Cc1ccc(-n2cc(CO)nn2)cc1` [Compound 20b, 4-(3-(4-(4-(hydroxymethyl)-1H-1,2,3-triazol-1-yl)benzyl)-4,4-dimethyl-2,5-dioxoimidazolidin-1-yl) 2-(trifluoromethyl)benzonitrile], the activity at 10 µM at AR was 73%.

Turning to `CC1(C)C(=O)N(c2ccc(C#N)c(C(F)(F)F)c2)C(=O)N1Cc1ccc(-n2cc(CCO)nn2)cc1` [Compound 20c, 4-(3-(4-(4-(2-hydroxyethyl)-1H-1,2,3-triazol-1-yl)benzyl)-4,4-dimethyl-2,5-dioxoimidazolidin-1-yl)-2-(trifluoromethyl)benzonitrile], the activity at 10 µM at AR is -1%.
